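Compound exposure: 48 hours, 5 concentrations, 96-well plates. Here, GI50 denotes the concentration required for 50% inhibition of growth.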 Calls of active or inactive are those of the source. No stated cut-off is given here; in the data, active = GI50 up to about 1.1 µM and inactive = higher. Non-standard residues stand in square brackets, D forms with d. Residues, ends and D or L forms follow the SMILES beside them. ξ: configuration not given here. ξLac(3-iPr) = CC(C)CC(O)C(=O)O; NMeV = CN[CH](C(=O)O)C(C)C; NMeA = CN[CH](C)C(=O)O; βAla = NCCC(=O)O
Experiments:
Assay in all cases: NCI tumour cell line growth inhibition, 48 h
[1] = test system: HOP-92
[2] = test system: TK-10
[3] = test system: RXF 393
[4] = test system: KM12
[5] = test system: OVCAR-8
[6] = test system: UACC-257
[7] = test system: A549
[8] = test system: SW-620
[9] = test system: IGROV-1
[10] = test system: HOP-62
[11] = test system: NCI/ADR-RES
[12] = test system: T47D
[13] = test system: UO-31
[14] = test system: K562
[15] = test system: U-251
[16] = test system: COLO 205
[17] = test system: SK-OV-3
[18] = test system: OVCAR-5
[19] = test system: NCI-H460
[20] = test system: HCT-116

Structure (SMILES)	GI50 [1]	GI50 [2]	GI50 [3]	GI50 [4]	GI50 [5]	GI50 [6]	GI50 [7]	GI50 [8]	GI50 [9]	GI50 [10]	GI50 [11]	GI50 [12]	GI50 [13]	GI50 [14]	GI50 [15]	GI50 [16]	GI50 [17]	GI50 [18]	GI50 [19]	GI50 [20]
CC1Cc2cc(O)c(O)cc2-c2cc(O)c(O)cc2CC1C (stereo not given)	15.3 µM (inactive)	26.4 µM (inactive)	18.1 µM (inactive)	4.48 µM (inactive)	23.3 µM (inactive)	12.3 µM (inactive)	31.6 µM (inactive)	20.5 µM (inactive)	20.4 µM (inactive)	17.9 µM (inactive)	12.6 µM (inactive)	25.2 µM (inactive)	25.3 µM (inactive)	12.8 µM (inactive)	15.2 µM (inactive)	17.8 µM (inactive)	36.8 µM (inactive)	18.9 µM (inactive)	20.4 µM (inactive)	17.9 µM (inactive)
CN(CCNC(=O)c1n[nH]c2c1Cc1ccccc1-2)CCNC(=O)c1n[nH]c2c1Cc1ccccc1-2	17.3 µM (inactive)	19.1 µM (inactive)	15.3 µM (inactive)	17.3 µM (inactive)	20.9 µM (inactive)	18.8 µM (inactive)	20.6 µM (inactive)	22.1 µM (inactive)	16.3 µM (inactive)	14.8 µM (inactive)	37.8 µM (inactive)	18.8 µM (inactive)	19.4 µM (inactive)	18 µM (inactive)	19.3 µM (inactive)	17.3 µM (inactive)	16.5 µM (inactive)	18.6 µM (inactive)	18.1 µM (inactive)	16.2 µM (inactive)
CN(C)c1ccc(/C=N/c2ccc(-c3nc4ccccc4[nH]3)cc2)cc1	> 100 µM (inactive)	> 100 µM (inactive)	24.2 µM (inactive)	32.5 µM (inactive)	> 100 µM (inactive)	> 100 µM (inactive)	> 100 µM (inactive)	32.4 µM (inactive)	47.1 µM (inactive)	> 100 µM (inactive)	1.09 µM (active)	31.3 µM (inactive)	56.4 µM (inactive)	35 µM (inactive)	39.2 µM (inactive)	60.8 µM (inactive)	> 100 µM (inactive)	> 100 µM (inactive)	51.8 µM (inactive)	43.6 µM (inactive)
Cc1ccc(S(=O)(=O)NC(=N)N(C)N=O)cc1	84.1 µM (inactive)	> 100 µM (inactive)	> 100 µM (inactive)	> 100 µM (inactive)	> 100 µM (inactive)	> 100 µM (inactive)	19.1 µM (inactive)	> 100 µM (inactive)	> 100 µM (inactive)	> 100 µM (inactive)	> 100 µM (inactive)	> 100 µM (inactive)	> 100 µM (inactive)	> 100 µM (inactive)	> 100 µM (inactive)	28.1 µM (inactive)	18.5 µM (inactive)	> 100 µM (inactive)	18.9 µM (inactive)	> 100 µM (inactive)
NC(=O)c1ncn2c(=O)n(CCl)nnc12	> 100 µM (inactive)	63.1 µM (inactive)	> 100 µM (inactive)	> 100 µM (inactive)	97.1 µM (inactive)	> 100 µM (inactive)	> 100 µM (inactive)	42 µM (inactive)	> 100 µM (inactive)	> 100 µM (inactive)	48.9 µM (inactive)	94.2 µM (inactive)	> 100 µM (inactive)	72.6 µM (inactive)	> 100 µM (inactive)	50.2 µM (inactive)	83 µM (inactive)	> 100 µM (inactive)	51.6 µM (inactive)	28.2 µM (inactive)
CCC(C)C1NC(=O)C2CCCN2C(=O)C(CC(C)C)OC(=O)CCNC(=O)C(C)N(C)C(=O)C(C(C)C)N(C)C1=O (stereo not given) (cyclo([ξLac(3-iPr)]PI[NMeV][NMeA][βAla]); configuration not given here)	17.9 µM (inactive)	23.2 µM (inactive)	3.83 µM (inactive)	3.44 µM (inactive)	3.48 µM (inactive)	6.32 µM (inactive)	4.82 µM (inactive)	3.73 µM (inactive)	5.83 µM (inactive)	2.77 µM (inactive)	16.1 µM (inactive)	4.68 µM (inactive)	6.84 µM (inactive)	3.16 µM (inactive)	10.3 µM (inactive)	3.61 µM (inactive)	20.6 µM (inactive)	4.83 µM (inactive)	1.19 µM (inactive)	2.2 µM (inactive)
